The text below walks through data of article PMC6934184, “Selective DNA-PKcs inhibition extends the therapeutic index of localized radiotherapy and chemotherapy” (The Journal of Clinical Investigation, 2019).

Usually inhibition stands for the relative decrease from the control value, in per cent. High values mean strong suppression, low ones little suppression.

Molecules are shown by their SMILES.

In the assay the target is T1, MAP4K2 (GCK) (Homo sapiens, UniProt Q12851).
T1 construct: purchased Thermo Fisher Scientific (Life Technologies) SelectScreen
The assay can be described thus: SelectScreen Z'LYTE. The class given is biochemical. Put shortly:
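Percent values come from Thermo SelectScreen profiling of NU5455, combining activity and binding assays. CSF1R was run in Z'LYTE format at Km app ATP, and CAMK1 in Adapta format with ATP listed at 10.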

T1 sequence (Q12851 whole entry): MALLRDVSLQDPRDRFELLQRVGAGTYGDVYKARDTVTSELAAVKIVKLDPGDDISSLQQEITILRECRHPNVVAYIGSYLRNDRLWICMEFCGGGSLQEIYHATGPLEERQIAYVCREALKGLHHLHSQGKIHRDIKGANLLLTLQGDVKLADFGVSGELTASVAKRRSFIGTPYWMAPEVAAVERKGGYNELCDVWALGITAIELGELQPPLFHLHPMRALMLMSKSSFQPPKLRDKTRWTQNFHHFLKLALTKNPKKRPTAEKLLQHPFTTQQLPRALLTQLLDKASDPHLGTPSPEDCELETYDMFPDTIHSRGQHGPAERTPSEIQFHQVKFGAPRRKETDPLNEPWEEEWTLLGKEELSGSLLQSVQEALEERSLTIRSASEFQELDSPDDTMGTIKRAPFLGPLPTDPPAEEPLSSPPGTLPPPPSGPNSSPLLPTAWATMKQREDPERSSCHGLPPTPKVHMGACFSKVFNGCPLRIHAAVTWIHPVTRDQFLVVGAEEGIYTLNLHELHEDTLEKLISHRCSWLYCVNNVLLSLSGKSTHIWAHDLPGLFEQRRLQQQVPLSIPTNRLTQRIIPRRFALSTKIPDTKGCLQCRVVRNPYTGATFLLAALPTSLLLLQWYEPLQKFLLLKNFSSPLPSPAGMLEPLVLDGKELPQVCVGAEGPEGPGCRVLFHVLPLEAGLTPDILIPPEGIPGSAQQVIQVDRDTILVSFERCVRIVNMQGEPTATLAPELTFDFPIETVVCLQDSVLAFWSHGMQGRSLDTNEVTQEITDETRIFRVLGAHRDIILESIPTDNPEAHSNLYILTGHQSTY

In turn, `CN(C(=O)CN1CCOCC1)c1ccc2sc3c(-c4cccc5c(=O)cc(N6CC7CCC(C6)O7)oc45)cccc3c2c1` [NU5455] returned an inhibition at 1 µM of 2.7%.
